Measured values as given in patent publication US20250360161A1, “CHEMICALLY MODIFIED HEPARIN” (IHP Therapeutics Inc., priority 2022, published 2025).

Experiments:
[1] = test system: BxPC3 human pancreatic cancer cells; assay: Pancreatic cancer BxPC3 subcutaneous model, tumor volume; type: in vivo, nude mice; details: day 70; gemcitabine 100 mg/kg i.p. q3 day; Compounds A, B 5 mg/kg s.c. bid, 10 mg/kg from day 56
Procedure: A study was conducted to evaluate the anti-cancer activity of Compound A and Compound B in a mouse model of pancreatic cancer. Human pancreatic cancer cells, BxPC3, were implanted subcutaneously (1×10^6 cells in 100 μL Matrigel) in 6 week old female nude mice (5 mice per group). Treatment began on day 7 after implantation, with either gemcitabine (100 mg/kg i.p. q3 day), Compound A (5 mg/kg s.c. bid), or Compound B (5 mg/kg s.c. bid). Tumor volume was measured with calipers each week. On day 56 the dose of both Compound A and B were increased to 10 mg/kg s.c. bid. At day 70 animals were sacrificed and tumors resected, fixed, and stored for further testing.

P-selectin = assay: P-selectin-mediated HL-60 cell binding to immobilized P-selectin/Fc chimera; type: cell-based; details: HL-60 cells, best-fit values
Procedure: 96 well plates were coated with 10 μg/mL Protein A overnight, then blocked with 2% FBS for 1 hour. 2 μg/mL P-selectin/Fc chimera was bound to the Protein A for 3 hours at 4° C. HL-60 cells (2e5 cells/well, CMFDA labeled) were then layered onto the P-selectin and allowed to bind for 1 hour at room temperature. Wells were treated concurrently with test samples to determine inhibitory binding activity. After 1 hour, unbound cells were washed and bound cells lysed in a 1% Triton-X solution and read on a Fluorimeter at 480/520 nm.

Row | P-sel IC50 (P-selectin) | Compound | reduction of tumor volume [1]
1 | – | Nc1ccn([C@@H]2O[C@H](CO)[C@@H](O)C2(F)F)c(=O)n1 [Gemcitabine, gemcitabine] | approximately 58%
2 | 64.72 µg/mL | enoxaparin | –
